# Patent publication EP0367189A2, “Sugar phosphates and sulfonates of epipodophyllotoxin glucosides” (Bristol-Myers Squibb Company, priority 1988, dated 1990)
# Experiments:
# [1] = target: T1, prostatic acid phosphatase (Homo sapiens, UniProt P15309); conditions: Seligman et al, Cancer Chemotherapy Reports Part I, 1975; cited from earlier work
# T1 sequence (P15309 33-386): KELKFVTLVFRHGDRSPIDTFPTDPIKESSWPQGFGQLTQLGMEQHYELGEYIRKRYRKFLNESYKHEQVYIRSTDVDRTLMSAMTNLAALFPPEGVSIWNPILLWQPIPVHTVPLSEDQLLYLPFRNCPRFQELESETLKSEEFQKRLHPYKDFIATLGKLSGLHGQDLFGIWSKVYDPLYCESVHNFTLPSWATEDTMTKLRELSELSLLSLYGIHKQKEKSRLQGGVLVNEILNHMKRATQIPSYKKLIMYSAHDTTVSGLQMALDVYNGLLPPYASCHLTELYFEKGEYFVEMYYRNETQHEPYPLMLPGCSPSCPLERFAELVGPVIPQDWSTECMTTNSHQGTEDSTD
# [2] = Seligman et al, Cancer Chemotherapy Reports Part I, 1975; cited from earlier work
# B16 melanoma cells = experiment: In vitro cytotoxicity against B16 melanoma cells (neutral red staining); assay type: cell-based; conditions: 72 hours at 37°C, colorimetric at 540 nm, IC₅₀ higher than 100 µg/ml = lack of cytotoxic activity
# Method: Cytotoxicity of compounds of the present invention was studied using B16 melanoma cells. B16 melanoma cells were grown to the logarithmic phase in the enriched Eagle minimum essential medium supplemented with fetal calf serum (10%) and kanamycin (60 mcg/ml). The tumor cells were harvested and implanted into wells of the 96-well microtiter plate with test materials at the inoculum size of 3.0 x 10⁴ cells/ml. They were incubated at 37°C in humidified atmosphere of 5% CO₂ and 95% air for 72 hours. The cytotoxic activity against the above cell line was determined colorimetrically at 540 nm after staining viable cells with neutral red and is reported in terms of the concentration that inhibits 50% of cell growth (IC₅₀). IC₅₀ values of higher than 100 µg/ml are generally considered as indicating lack of cytotoxic activity.
# P388 leukemia = experiment: Antitumor activity against murine transplantable P388 leukemia (survival); assay type: in vivo, CDF₁ mice; conditions: maximum % T/C only, at the dose giving the maximum effect (dose column of Table I); single intraperitoneal dose on day 1; observed 45 days; 10⁶ P388 cells ip; % T/C of 125 or greater = significant
# Method: Representative compounds of the present invention were evalnated for anti tumor activity against murine transplantable P388 leukemia. Five-week old female CDF₁ mice were inoculated intraperitoneally with 0.4 ml of diluted ascitic fluid containing 10⁶ lymphocytic leukemia P388 cells. […] The percent increase of median survival time (MST) of treated animals over that of untreated control animals was determined and reported as % T/C. Compounds showing % T/C values of 125 or greater are considered to have significant antitumor activity. Table I presents the results of the in vivo evaluation; only the maximum % T/C and the dose giving the maximum effects are reported.
Molecule,hydrolysis by prostatic acid phosphatase [1],toxicity over the parent podophyllotoxin [2],IC₅₀ (B16 melanoma cells),%T/C of MST (P388 leukemia),IC50 (B16 melanoma cells; Mus musculus)
podophyllotoxin phosphate disodium salt,not hydrolyzed,did not show reduced toxicity,–,–,–
disodium etoposide 3˝-phosphate [Compound XI],–,–,2.2 µg/mL,185%,–
etoposide 2˝-mesylate [Compound XXIV],–,–,29 µg/mL,130%,–
sodium bis(etoposide-3˝-)phosphate [Compound XIII],–,–,37 µg/mL,125%,–
etoposide 3˝-mesylate [Compound XXIII],–,–,0.32 µg/mL,175%,–
etoposide 3˝-tosylate [Compound XVII],–,–,0.07 µg/mL,195%,–
disodium etoposide 2˝ -phosphate [Compound XII],–,–,20 µg/mL,120%,–
"etoposide 2˝,3˝-ditosylate [Compound XIX]",–,–,30 µg/mL,100%,–
etoposide 3˝-diphenyl phosphate [XXVI],–,–,8.0 µg/mL,130%,–
etoposide 2˝-tosylate [Compound XVIII],–,–,5.4 µg/mL,115%,–
"COc1cc([C@@H]2c3cc4c(cc3[C@@H](O[C@@H]3O[C@@H]5CO[C@@H](C)O[C@H]5[C@H](O)[C@H]3O)[C@H]3COC(=O)[C@H]23)OCO4)cc(OC)c1O [Etoposide, etoposide, reference compound]",–,–,–,250%,0.21 µg/mL
